Measurements from patent publication US5409933A, “Quinoline derivatives and processes for preparing the same” (priority 1993, dated 1995).
Where a name gives a salt, the structure may show the parent alone. Read-outs that look alike come from different tables or passages of the source.

Assays:
Assay in all cases: In Vitro Anti-Bacterial Activity Test (MIC, agar dilution)
Format in all cases: cell-based
[1] = system: Streptococcus faecium MD8b; conditions: Enterococcus faecium, Muller-Hinton agar, 37° C., 18 hours, read-out: MIC
Summary of the method: (§1)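 Via the agar dilution method, compound-supplemented Muller-Hinton plates received 10^7 C.F.U./ml inocula. Incubation ran 18 hours at 37° C., and MIC corresponded to the lowest concentration without growth.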

[2] = system: Pseudomonas aeruginosa 1592E; conditions: Muller-Hinton agar, 37° C., 18 hours, read-out: MIC
Summary of the method: as §1

Escherichia coli DC0 = conditions: Muller-Hinton agar, 37° C., 18 hours, read-out: MIC
Summary of the method: as §1

[3] = system: Pseudomonas aeruginosa 9027; conditions: Muller-Hinton agar, 37° C., 18 hours, read-out: MIC
Summary of the method: as §1

[4] = system: Staphylococcus aureus SG511; conditions: Staphylococcus aureus SG511; Muller-Hinton agar, 37° C., 18 hours; read-out: MIC
Summary of the method: as §1

[5] = system: Klebsiella aerogenes 1522E; conditions: Klebsiella aerogenes, 1522E, 18 h, Klebsiella aerogenes 1522E; Muller-Hinton agar, 37° C., 18 hours; read-out: MIC
Summary of the method: as §1

Salmonella typhimurium = conditions: Salmonella enterica; Salmonella typhimurium; Muller-Hinton agar, 37° C., 18 hours; read-out: MIC
Summary of the method: as §1

[6] = system: Streptococcus pyogenes 77A
Summary of the method: as §1

[7] = system: Pseudomonas aeruginosa 1771M; conditions: Pseudomonas aeruginosa, 1771M, 18 h, Muller-Hinton agar, 37° C.
Summary of the method: as §1

Klebsiella oxytoca 1082E = conditions: Klebsiella oxytoca 1082E; Muller-Hinton agar, 37° C., 18 hours; read-out: MIC
Summary of the method: as §1

[8] = system: Staphylococcus aureus 503; conditions: Staphylococcus aureus 503; Muller-Hinton agar, 37° C., 18 hours; read-out: MIC
Summary of the method: as §1

[9] = system: Staphylococcus aureus 285; conditions: Staphylococcus aureus, 285, 18 h, Staphylococcus aureus 285; Muller-Hinton agar, 37° C., 18 hours; read-out: MIC
Summary of the method: as §1

[10] = system: Streptococcus pyogenes 308A; conditions: Muller-Hinton agar, 37° C., 18 hours, read-out: MIC
Summary of the method: as §1

Escherichia coli DC2 = conditions: Escherichia coli, DC2, 18 h
Summary of the method: as §1

Escherichia coli 1507E = conditions: Muller-Hinton agar, 37° C.
Summary of the method: as §1

Escherichia coli 078 = system: Escherichia coli 078
Summary of the method: as §1

[11] = system: Enterobacter cloacae 1321E
Summary of the method: as §1

[12] = system: Pseudomonas aeruginosa 1771; conditions: Pseudomonas aeruginosa 1771; Muller-Hinton agar, 37° C., 18 hours; read-out: MIC
Summary of the method: as §1

Escherichia coli TEM = conditions: Escherichia coli, 18 h, Muller-Hinton agar, 37° C.
Summary of the method: as §1

Enterobacter cloacae P99 = conditions: Enterobacter cloacae, P99, 18 h
Summary of the method: as §1

[13] = Streptococcus pyogenes 77A, Muller-Hinton agar, 37° C., 18 hours, read-out: MIC
[14] = Enterobacter cloacae 1321E, Muller-Hinton agar, 37° C., 18 hours, read-out: MIC
[15] = Streptococcus pyogenes, 77A, 18 h
[16] = Escherichia coli 078, Muller-Hinton agar, 37° C., 18 hours, read-out: MIC

Structure (SMILES)	MIC [1]	MIC [2]	MIC (Escherichia coli DC0)	MIC [3]	MIC [4]	MIC [5]	MIC (Salmonella typhimurium)	MIC [6, 13]	MIC [7]	MIC (Klebsiella oxytoca 1082E)	MIC [8]	MIC [9]	MIC [10]	MIC (Escherichia coli DC2)	MIC (Escherichia coli 078; Escherichia coli, 078, 18 h)	MIC [11, 14]	MIC [12]	MIC (Escherichia coli TEM)	MIC (Enterobacter cloacae P99)	MIC (Escherichia coli 1507E; Escherichia coli, 1507E, 18 h)	other results
CCOC(=O)C(C(N)=O)C(=O)c1cn(C2CC2)c2c(Cl)c(N3CCC(N)C3)c(F)cc2c1=O (stereo not drawn) [Example 52, 1-cyclopropyl-6-fluoro-8-chloro-7-(3-aminopyrrolidin-1-yl)-3-(2-amido-2-ethoxycarbonylacetyl)-1,4-dihydro-4-oxoquinoline hydrochloride]	0.391 µg/mL	0.391 µg/mL	0.049 µg/mL	0.781 µg/mL	0.025 µg/mL	0.013 µg/mL	0.013 µg/mL	0.391 µg/mL	0.098 µg/mL	< 0.002 µg/mL	0.025 µg/mL	0.025 µg/mL	0.195 µg/mL	0.025 µg/mL	0.007 µg/mL	< 0.002 µg/mL	0.391 µg/mL	< 0.002 µg/mL	0.004 µg/mL	–	MIC (Escherichia coli 1507E; 18 hours, read-out: MIC): 0.004 µg/mL
CS(=O)(=O)CC(=O)c1cn(C2CC2)c2c(Cl)c(N3CCC(N)C3)c(F)cc2c1=O (stereo not drawn) [Example 33, 1-cyclopropyl-6-fluoro-8-chloro-7-(3-aminopyrrolidin-1-yl)-3-(2-methanesulfonylacetyl)-1,4-dihydro-4-oxoquinoline hydrochloride]	6.25 µg/mL	1.56 µg/mL	0.195 µg/mL	1.56 µg/mL	1.56 µg/mL	0.391 µg/mL	0.781 µg/mL	3.12 µg/mL	0.781 µg/mL	0.391 µg/mL	0.781 µg/mL	1.56 µg/mL	3.12 µg/mL	0.098 µg/mL	0.195 µg/mL	0.098 µg/mL	1.56 µg/mL	0.098 µg/mL	0.195 µg/mL	0.195 µg/mL	–
CC1CN(c2cc3c(cc2F)c(=O)c(C(=O)C[N+](=O)[O-])cn3-c2ccc(F)cc2F)CCN1 (stereo not drawn) [Example 10, 1-(2,4-difluorophenyl)-6-fluoro-7-(3-methylpiperazin-1-yl)-3-(2-nitroacetyl)-1,4-dihydro-4-oxoquinoline hydrochloride]	1.56 µg/mL	1.56 µg/mL	1.56 µg/mL	3.12 µg/mL	0.391 µg/mL	1.56 µg/mL	0.049 µg/mL	–	1.56 µg/mL	0.025 µg/mL	0.391 µg/mL	0.391 µg/mL	1.56 µg/mL	0.391 µg/mL	0.049 µg/mL	0.049 µg/mL	3.12 µg/mL	0.098 µg/mL	0.049 µg/mL	0.098 µg/mL	MIC [6, 15]: 0.781 µg/mL
O=C(C[N+](=O)[O-])c1cn(C2CC2)c2c(F)c(N3CCNCC3)c(F)cc2c1=O [Example 6, 1-cyclopropyl-6,8-difluoro-7-(piperazin-1-yl)-3-(2-nitroacetyl)-1,4-dihydro-4-oxoquinoline hydrochloride]	0.781 µg/mL	0.195 µg/mL	0.195 µg/mL	0.391 µg/mL	0.098 µg/mL	0.007 µg/mL	< 0.002 µg/mL	–	0.049 µg/mL	< 0.002 µg/mL	0.391 µg/mL	0.195 µg/mL	3.12 µg/mL	0.098 µg/mL	–	< 0.002 µg/mL	0.195 µg/mL	< 0.002 µg/mL	< 0.002 µg/mL	–	MIC [6, 15]: 0.781 µg/mL; MIC (Escherichia coli 1507E; 18 hours, read-out: MIC): < 0.002 µg/mL; MIC (Escherichia coli 078; [16]): < 0.002 µg/mL
CCOC(=O)C(C(=O)OCC)C(=O)c1cn(C2CC2)c2c(Cl)c(N3CC[C@@H](N)C3)c(F)cc2c1=O [Example 23, 1-cyclopropyl-6-fluoro-8-chloro-7-(3-3R-aminopyrrolidin-1-yl)-3-(2,2-diethoxycarbonylacetyl)-1,4-dihydro-4-oxoquinoline hydrochloride]	0.195 µg/mL	0.391 µg/mL	0.195 µg/mL	0.781 µg/mL	0.049 µg/mL	0.025 µg/mL	0.004 µg/mL	0.195 µg/mL	0.098 µg/mL	< 0.002 µg/mL	0.049 µg/mL	0.049 µg/mL	0.781 µg/mL	0.049 µg/mL	–	< 0.002 µg/mL	0.391 µg/mL	0.004 µg/mL	0.004 µg/mL	0.013 µg/mL	MIC (Escherichia coli 078; [16]): < 0.002 µg/mL
CCOC(=O)C(C(=O)OCC)C(=O)c1cn(C2CC2)c2c(Cl)c(N3CCC(NC)C3)c(F)cc2c1=O (stereo not drawn) [Example 57, 1-cyclopropyl-6-fluoro-8-chloro-7-(3-methylaminopyrrolidin-1-yl)-3-(2,2-diethoxycarbonylacetyl)-1,4-dihydro-4-oxoquinoline hydrochloride]	0.098 µg/mL	0.781 µg/mL	0.049 µg/mL	1.56 µg/mL	0.049 µg/mL	0.049 µg/mL	0.013 µg/mL	0.195 µg/mL	0.195 µg/mL	0.049 µg/mL	0.195 µg/mL	0.195 µg/mL	0.781 µg/mL	0.025 µg/mL	0.007 µg/mL	0.049 µg/mL	0.391 µg/mL	0.013 µg/mL	0.013 µg/mL	0.013 µg/mL	–
CN[C@@H]1CCN(c2c(F)cc3c(=O)c(C(=O)C[N+](=O)[O-])cn(C4CC4)c3c2OC)C1 [Example 64, 1-cyclopropyl-6-fluoro-8-methoxy-7-(3-3R-methylaminopyrrolidin-1-yl)-3-(2-nitroacetyl)-1,4-dihydro-4-oxoquinoline hydrochloride]	0.391 µg/mL	1.56 µg/mL	0.391 µg/mL	1.56 µg/mL	0.391 µg/mL	0.098 µg/mL	0.013 µg/mL	–	0.781 µg/mL	0.007 µg/mL	0.098 µg/mL	0.098 µg/mL	0.781 µg/mL	0.049 µg/mL	0.049 µg/mL	0.049 µg/mL	0.781 µg/mL	0.049 µg/mL	0.049 µg/mL	0.098 µg/mL	MIC [6, 15]: 0.781 µg/mL
C[C@@H]1CN(c2c(F)c(N)c3c(=O)c(C(=O)C[N+](=O)[O-])cn(C4CC4)c3c2F)C[C@H](C)N1 [Example 14, 1-cyclopropyl-5-amino-6,8-difluoro-7-(3,5-cis-dimethylpiperazin-1-yl)-3-(2-nitroacetyl)-1,4-dihydro-4-oxoquinoline hydrochloride]	0.391 µg/mL	0.781 µg/mL	0.098 µg/mL	0.781 µg/mL	0.098 µg/mL	0.025 µg/mL	< 0.002 µg/mL	0.195 µg/mL	0.195 µg/mL	< 0.002 µg/mL	0.049 µg/mL	0.098 µg/mL	1.56 µg/mL	0.049 µg/mL	–	< 0.002 µg/mL	0.391 µg/mL	0.007 µg/mL	0.007 µg/mL	0.013 µg/mL	MIC (Escherichia coli 078; [16]): < 0.002 µg/mL
NC1CCN(c2cc3c(cc2F)c(=O)c(C(=O)C[N+](=O)[O-])cn3-c2ccc(F)cc2F)C1 (stereo not drawn) [Example 9, 1-(2,4-difluorophenyl)-6-fluoro-7-(3-aminopyrrolidin-1-yl)-3-(2-nitroacetyl)-1,4-dihydro-4-oxoquinoline hydrochloride]	0.195 µg/mL	0.098 µg/mL	0.195 µg/mL	0.391 µg/mL	0.025 µg/mL	0.004 µg/mL	0.007 µg/mL	0.195 µg/mL	0.049 µg/mL	< 0.002 µg/mL	0.013 µg/mL	0.025 µg/mL	0.195 µg/mL	0.025 µg/mL	0.007 µg/mL	–	0.195 µg/mL	< 0.002 µg/mL	< 0.002 µg/mL	0.013 µg/mL	MIC ([11]; Enterobacter cloacae, 1321E, 18 h): 0.007 µg/mL
